# From patent US9725703B2, “Formulations and methods for stabilizing PCR reagents” (BIOMATRICA, INC., priority 2012, dated 2017)
# Target: T1, Roche FastStart Taq polymerase (Thermus aquaticus, UniProt P19821)
# T1 construct: purchased Roche
# Experiment: Multiplex end-point PCR (GAPDH) with stabilized Roche FastStart Taq after storage
# Format: biochemical
# Settings: 3 weeks at 45° C.; polymerase mixed 1:4 with stabilizer; FIG. 1b
# Experimental: Roche FastStart Taq polymerase (stored at −20° C. in 50% glycerol) was mixed in a 1:4 ratio with a range of liquid stabilizer solutions as set forth in Table 4 and incubated at both room temperature and 45° C. A non-protected sample was also included where the polymerase was mixed with an additional quantity of its storage buffer. At various time points, aliquots were taken from the stabilized enzyme solutions and used to perform end-point PCR assays. At each time point, the stabilized enzymes were compared to a frozen positive control enzyme in the same assay.
# For end-point PCR, a multiplex assay using three primer sets to generate 3 different size fragments of the GAPDH gene was used. Typical PCR reactions contained the following: 1× Roche PCR reaction buffer, 10 ng human genomic DNA, 300 μM dNTPs, 240 nM GAPDH primer set A, 600 nM GAPDH primer set B, 1.2 μM GAPDH primer set C, and 1 unit Roche FastStart Taq polymerase. Cycling conditions were 2 minutes at 95° C. followed by 35 cycles of 30 seconds at 95° C., 30 seconds at 56° C., 30 seconds at 68° C., followed by 5 minutes at 68° C. PCR products were run on 2% agarose gels and visualized using ethidium bromide.
# T1 sequence (P19821 whole entry): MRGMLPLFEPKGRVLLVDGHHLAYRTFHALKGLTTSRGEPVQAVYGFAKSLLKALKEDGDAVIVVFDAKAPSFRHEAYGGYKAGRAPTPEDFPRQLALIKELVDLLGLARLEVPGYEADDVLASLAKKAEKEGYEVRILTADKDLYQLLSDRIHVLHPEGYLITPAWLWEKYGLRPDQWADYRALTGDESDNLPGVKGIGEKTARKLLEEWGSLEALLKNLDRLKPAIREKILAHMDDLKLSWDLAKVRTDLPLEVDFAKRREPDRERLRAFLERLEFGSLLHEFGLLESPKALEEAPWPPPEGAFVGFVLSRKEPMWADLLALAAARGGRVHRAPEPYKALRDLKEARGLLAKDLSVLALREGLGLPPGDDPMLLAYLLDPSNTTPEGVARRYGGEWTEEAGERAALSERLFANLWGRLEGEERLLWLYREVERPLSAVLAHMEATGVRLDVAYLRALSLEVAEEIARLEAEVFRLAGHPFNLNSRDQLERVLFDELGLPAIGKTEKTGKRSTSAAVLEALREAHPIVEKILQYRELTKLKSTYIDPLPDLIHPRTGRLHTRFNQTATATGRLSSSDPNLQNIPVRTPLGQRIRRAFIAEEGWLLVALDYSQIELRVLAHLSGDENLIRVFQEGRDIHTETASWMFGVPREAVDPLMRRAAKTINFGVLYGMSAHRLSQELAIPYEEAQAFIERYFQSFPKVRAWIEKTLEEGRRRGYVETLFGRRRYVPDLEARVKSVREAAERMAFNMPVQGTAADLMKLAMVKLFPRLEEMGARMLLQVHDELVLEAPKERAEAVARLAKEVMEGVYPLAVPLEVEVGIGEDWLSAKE
smiles,measurement,value
"C[N+]1(CCC(=O)[O-])CCC(O)CC1 (stereo not shown) [Compound 102, 3-(4-hydroxy-1-methylpiperidinium-1-yl)propanoate]",polymerase activity after storage (end-point PCR),provides increased stability
